# Target: mGluR4 (UniProt Q14833)
# Assay: mGluR4 potentiation assay (fluorescence, Ca2+ or thallium/GIRK readout; EC20 agonist)
# Assay type: cell-based, human / rat
# Details: half maximal effective concentration for mGluR4 potentiation; species of receptor not given
# In short: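 Human mGluR4 in CHO cells (Ca2+ dye) or rat mGluR4 with GIRK in HEK cells (thallium dye), read kinetically. Potentiation EC50 and maximum fitted from compound concentration-response at fixed agonist.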
row,SMILES,EC50
1,"O=C(Nc1ccc(N2C(=O)C3CN(C4CCCCC4)CCN3C2=O)c(Cl)c1)c1ccccn1 (centres unmarked) [Example 1.3.71, N-(3-chloro-4-(7-cyclohexyl-1,3-dioxohexahydroimidazo[1,5-a]pyrazin-2(3H)-yl)phenyl)picolinamide]",2230 nM
2,"CC(=O)N1CCN2C(=O)N(c3ccc(NC(=O)c4ccccn4)cc3Cl)C(=O)C2C1 (centres unmarked) [Example 1.3.72, N-(4-(7-acetyl-1,3-dioxohexahydroimidazo[1,5-a]pyrazin-2(3H)-yl)-3-chlorophenyl)picolinamide]",4510 nM
3,"CC(C)(C)C(=O)N1CCN2C(=O)N(c3ccc(NC(=O)c4ccccn4)cc3Cl)C(=O)C2C1 (centres unmarked) [Example 1.3.73, N-(3-chloro-4-(1,3-dioxo-7-pivaloylhexahydroimidazo[1,5-a]pyrazin-2(3H)-yl)phenyl)picolinamide]",1070 nM
4,"O=C(Nc1ccc(N2C(=O)C3CN(C(=O)c4ccco4)CCN3C2=O)c(Cl)c1)c1ccccn1 (centres unmarked) [Example 1.3.74, N-(3-chloro-4-(7-(furan-2-carbonyl)-1,3-dioxohexahydroimidazo[1,5-a]pyrazin-2(3H)-yl)phenyl)picolinamide]",967 nM
5,"O=C(Nc1ccc(N2C(=O)C3CCCCN3C2=S)c(Cl)c1)c1cccc(Cl)n1 (centres unmarked) [Example 1.3.75, 6-chloro-N-(3-chloro-4-(1-oxo-3-thioxohexahydroimidazo[1,5-a]pyridin-2(3H)-yl)phenyl)picolinamide]",3260 nM
6,"O=C(Nc1ccc(N2C(=O)C3CCCCN3C2=S)c(Cl)c1)c1cnccn1 (centres unmarked) [Example 1.3.76, N-(3-chloro-4-(1-oxo-3-thioxohexahydroimidazo[1,5-a]pyridin-2(3H)-yl)phenyl)pyrazine-2-carboxamide]",5040 nM
7,"O=C(Nc1ccc(N2C(=O)C3CCCCN3C2=S)c(Cl)c1)c1cccs1 (centres unmarked) [Example 1.3.77, N-(3-chloro-4-(1-oxo-3-thioxohexahydroimidazo[1,5-a]pyridin-2(3H)-yl)phenyl)thiophene-2-carboxamide]",2780 nM
8,"O=C(Nc1ccc(N2C(=O)C3CCCCN3C2=S)c(Cl)c1)c1ccsc1 (centres unmarked) [Example 1.3.78, N-(3-chloro-4-(1-oxo-3-thioxohexahydroimidazo[1,5-a]pyridin-2(3H)-yl)phenyl)thiophene-3-carboxamide]",1790 nM
9,"O=C(Nc1ccc(N2C(=O)C3CCCCN3C2=S)c(Cl)c1)c1nccs1 (centres unmarked) [Example 1.3.79, N-(3-chloro-4-(1-oxo-3-thioxohexahydroimidazo[1,5-a]pyridin-2(3H)-yl)phenyl)thiazole-2-carboxamide]",1340 nM
10,"O=C(Nc1ccc(N2C(=O)C3CCCCN3C2=S)c(Cl)c1)c1cscn1 (centres unmarked) [Example 1.3.80, N-(3-chloro-4-(1-oxo-3-thioxohexahydroimidazo[1,5-a]pyridin-2(3H)-yl)phenyl)thiazole-4-carboxamide]",1970 nM
11,"O=C(Nc1ccc(N2C(=O)C3CCCCN3C2=S)c(Cl)c1)c1ncc(F)cc1F (centres unmarked) [Example 1.3.81, N-(3-chloro-4-(1-oxo-3-thioxohexahydroimidazo[1,5-a]pyridin-2(3H)-yl)phenyl)-3,5-difluoropicolinamide]",876 nM
12,"O=C(Nc1ccc(N2C(=O)C3CCCCN3C2=S)c(Cl)c1)c1ccc(Cl)o1 (centres unmarked) [Example 1.3.82, 5-chloro-N-(3-chloro-4-(1-oxo-3-thioxohexahydroimidazo[1,5-a]pyridin-2(3H)-yl)phenyl)furan-2-carboxamide]",2850 nM
13,"O=C(Nc1ccc(N2C(=O)C3CCCCN3C2=S)c(Cl)c1)c1cccc(F)n1 (centres unmarked) [Example 1.3.83, N-(3-chloro-4-(1-oxo-3-thioxohexahydroimidazo[1,5-a]pyridin-2(3H)-yl)phenyl)-6-fluoropicolinamide]",354 nM
14,"O=C(Nc1ccc(N2C(=O)C3CCCCN3C2=S)c(Cl)c1)c1ncccc1F (centres unmarked) [Example 1.3.84, N-(3-chloro-4-(1-oxo-3-thioxohexahydroimidazo[1,5-a]pyridin-2(3H)-yl)phenyl)-3-fluoropicolinamide]",993 nM
15,"CC12CCCCN1C(=O)N(c1ccc(NC(=O)c3cccc(Cl)n3)cc1Cl)C2=O (centres unmarked) [Example 1.3.85, 6-chloro-N-(3-chloro-4-(8a-methyl-1,3-dioxohexahydroimidazo[1,5-a]pyridin-2(3H)-yl)phenyl)picolinamide]",864 nM
16,"CC12CCCCN1C(=O)N(c1ccc(NC(=O)c3nccs3)cc1Cl)C2=O (centres unmarked) [Example 1.3.86, N-(3-chloro-4-(8a-methyl-1,3-dioxohexahydroimidazo[1,5-a]pyridin-2(3H)-yl)phenyl)thiazole-2-carboxamide]",1630 nM
17,"CC12CCCCN1C(=O)N(c1ccc(NC(=O)c3cscn3)cc1Cl)C2=O (centres unmarked) [Example 1.3.87, N-(3-chloro-4-(8a-methyl-1,3-dioxohexahydroimidazo[1,5-a]pyridin-2(3H)-yl)phenyl)thiazole-4-carboxamide]",2670 nM
18,"CC12CCCCN1C(=O)N(c1ccc(NC(=O)c3ncc(F)cc3F)cc1Cl)C2=O (centres unmarked) [Example 1.3.88, N-(3-chloro-4-(8a-methyl-1,3-dioxohexahydroimidazo[1,5-a]pyridin-2(3H)-yl)phenyl)-3,5-difluoropicolinamide]",1100 nM
19,"CC12CCCCN1C(=O)N(c1ccc(NC(=O)c3ccc(Cl)o3)cc1Cl)C2=O (centres unmarked) [Example 1.3.89, 5-chloro-N-(3-chloro-4-(8a-methyl-1,3-dioxohexahydroimidazo[1,5-a]pyridin-2(3H)-yl)phenyl)furan-2-carboxamide]",4670 nM
20,"CC12CCCCN1C(=O)N(c1ccc(NC(=O)c3cccc(F)n3)cc1Cl)C2=O (centres unmarked) [Example 1.3.90, N-(3-chloro-4-(8a-methyl-1,3-dioxohexahydroimidazo[1,5-a]pyridin-2(3H)-yl)phenyl)-6-fluoropicolinamide]",1120 nM
21,"CC12CCCCN1C(=O)N(c1ccc(NC(=O)c3ncccc3F)cc1Cl)C2=O (centres unmarked) [Example 1.3.91, N-(3-chloro-4-(8a-methyl-1,3-dioxohexahydroimidazo[1,5-a]pyridin-2(3H)-yl)phenyl)-3-fluoropicolinamide]",3790 nM
22,"CC12CCCCN1C(=S)N(c1ccc(NC(=O)c3cnccn3)cc1Cl)C2=O (centres unmarked) [Example 1.3.92, N-(3-chloro-4-(8a-methyl-1-oxo-3-thioxohexahydroimidazo[1,5-a]pyridin-2(3H)-yl)phenyl)pyrazine-2-carboxamide]",1910 nM
23,"CC12CCCCN1C(=S)N(c1ccc(NC(=O)c3cccc(Cl)n3)cc1Cl)C2=O (centres unmarked) [Example 1.3.93, 6-chloro-N-(3-chloro-4-(8a-methyl-1-oxo-3-thioxohexahydroimidazo[1,5-a]pyridin-2(3H)-yl)phenyl)picolinamide]",2400 nM
24,"CC12CCCCN1C(=S)N(c1ccc(NC(=O)c3nccs3)cc1Cl)C2=O (centres unmarked) [Example 1.3.94, N-(3-chloro-4-(8a-methyl-1-oxo-3-thioxohexahydroimidazo[1,5-a]pyridin-2(3H)-yl)phenyl)thiazole-2-carboxamide]",761 nM
25,"CC12CCCCN1C(=S)N(c1ccc(NC(=O)c3cscn3)cc1Cl)C2=O (centres unmarked) [Example 1.3.95, N-(3-chloro-4-(8a-methyl-1-oxo-3-thioxohexahydroimidazo[1,5-a]pyridin-2(3H)-yl)phenyl)thiazole-4-carboxamide]",1050 nM
26,"CC12CCCCN1C(=S)N(c1ccc(NC(=O)c3ncc(F)cc3F)cc1Cl)C2=O (centres unmarked) [Example 1.3.96, N-(3-chloro-4-(8a-methyl-1-oxo-3-thioxohexahydroimidazo[1,5-a]pyridin-2(3H)-yl)phenyl)-3,5-difluoropicolinamide]",295 nM

# From US8779157B2, “MGLUR4 allosteric potentiators, compositions, and methods of treating neurological dysfunction” (Vanderbilt University, priority 2009, dated 2014)
